Assay results from ChEMBL document CHEMBL1201862, “PubChem BioAssay data set” (2004).
The source made the active and inactive calls. For most assays here, no stated cut-off is given here; in the data, actives have a measured AC50 and inactives only a lower limit.

What was measured:
[1] = cytotoxicity in OVCAR4 cells, dose response, cytotoxicity control for PAX8 inhibitor project, cell-based, plate reader, dry powder, SA11 (AID 743150); format: functional; details: OVCAR-4
[2] = PAX5 activity inhibitors, dose response, selectivity assay for PAX8 inhibitor project, cell-based, plate reader, dry powder samples (AID 743047); format: functional;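 further: HEK293 cells carrying a Pax5 driven CD19 promoter luciferase reporter; potency of inhibitors that lower reporter luminescence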
[3] = HepG2 cell cytotoxicity, dose response, cytotoxicity control, cherry-picked samples (AID 1159577); format: functional, cell-based
[4] = cytotoxicity in OV-90 ovarian cancer cells, dose response, PAX8 inhibitor project, cell-based, plate reader, dry powder, SA8 (AID 743149); format: functional
[5] = cytotoxicity in COV362 ovarian cancer cells, dose response, cytotoxicity control for PAX8 inhibitor project, cell-based, plate reader, dry powder, SA12 (AID 743144); format: functional
[6] = HepG2 cell cytotoxicity, dose response, cytotoxicity control, plate reader, dry powder samples (AID 1159569); format: functional, cell-based;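 further: inhibitor potency with signal falling toward the positive control level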
[7] = cytotoxicity in COV434 cells, dose response, cytotoxicity control for PAX8 inhibitor project, cell-based, plate reader, dry powder, SA7 (AID 743145); format: functional
[8] = PAX2 cell-based inhibition, dose response, selectivity assay for PAX8 inhibitor project, plate reader, dry powder samples (AID 743048); format: functional;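 further: HEK293 cells carrying a WT1 promoter luciferase reporter driven by expressed Pax2; potency is for inhibition of Pax2 driven reporter signal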
[9] = P. falciparum ATP4 D1247Y mutant growth inhibitors, dose response, NITD609-resistant line, SYBR Green, dry powder (AID 1159571); format: functional, cell-based;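 further: parasites synchronized at ring stage by sorbitol before testing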
[10] = P. falciparum 3D7-ScDHODH growth inhibitors, dose response, SYBR Green, dry powder samples (AID 1159570); format: functional, cell-based;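 further: parasite growth measured after 72 hours of compound exposure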
[11] = cytotoxicity dependent on PAX8, dose response, cell-based, plate reader, dry powder (AID 743049); format: functional
[12] = NIH:OVCAR-3 ovarian cancer cell cytotoxicity, dose response, PAX8 inhibitor project, plate reader, dry powder samples (AID 743044); format: functional, cell-based
[13] = P. falciparum Dd2 growth inhibitors, dose response, SYBR Green, cherry-picked samples (AID 1159567); format: functional, cell-based
[14] = P. falciparum Dd2 growth inhibitors, dose response, SYBR Green, dry powder samples (AID 1159566); format: functional, cell-based;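 further: potency for growth inhibition with lower SYBR green DNA signal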
Paired box protein Pax-8 = Paired box protein Pax-8 (Homo sapiens, UniProt Q06710); experiment: inhibitors of PAX8-driven TPO luciferase reporter, dose response, RMG-I cells, cherry-pick (AID 687027); format: functional, cell-based;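 further: luciferase reporter driven by Pax8 target thyroperoxidase promoter measured by SteadyGlo luminescence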
[15] = T. cruzi growth inhibition in host cells, dose response, cell-based, plate reader, dry powder, set 2 (AID 652275); format: functional
[16] = T. cruzi intracellular amastigote growth inhibition, dose response, imaging, CA-I/72 strain, bovine embryo skeletal muscle, dry powder (AID 651885); format: functional, cell-based
[17] = growth inhibition of intracellular T. cruzi, dose response, cell-based, plate reader, dry powder samples (AID 651845); format: functional
[18] = CEM21 cell cytotoxicity, dose response, cytotoxicity control, plate reader, dry powder (AID 687026); format: functional, cell-based
[19] = inhibitors of fibronectin matrix deposition, dose response, AH1F cells, Alexa488-FN fluorescence, cherry-picks (AID 1035475); format: functional, cell-based
[20] = HEK293 cell cytotoxicity, dose response, cytotoxicity control, cherry-picks, set 5 (AID 1053117); format: functional, cell-based
[21] = Late stage assay provider results from the probe development effort to identify selective inhibitors of heat shock protein 90 (HSP90): Absorbance-based cell proliferation assay in SKBR3 cells.; format: functional; details: SK-BR-3
[22] = Late stage assay provider results from the probe development effort to identify selective inhibitors of heat shock protein 90 (HSP90): Absorbance-based cell proliferation assay in MCF7 cells.; format: functional

Sequence of Paired box protein Pax-8 (Q06710 whole entry): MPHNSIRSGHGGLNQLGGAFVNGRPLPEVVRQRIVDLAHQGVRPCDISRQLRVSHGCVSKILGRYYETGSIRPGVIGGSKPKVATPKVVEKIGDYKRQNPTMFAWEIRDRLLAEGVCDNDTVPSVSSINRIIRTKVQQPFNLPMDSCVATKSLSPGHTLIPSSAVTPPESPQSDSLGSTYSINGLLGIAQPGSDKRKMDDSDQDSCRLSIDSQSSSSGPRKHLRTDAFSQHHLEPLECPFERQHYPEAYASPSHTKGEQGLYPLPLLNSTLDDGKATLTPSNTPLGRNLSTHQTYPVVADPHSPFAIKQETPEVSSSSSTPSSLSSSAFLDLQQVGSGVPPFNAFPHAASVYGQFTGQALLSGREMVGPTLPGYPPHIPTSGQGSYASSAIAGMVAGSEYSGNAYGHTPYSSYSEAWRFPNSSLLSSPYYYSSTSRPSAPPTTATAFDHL

COc1cccc(C#Cc2ccc([C@H]3[C@@H](CO)N(C(=O)C4CCCCC4)[C@H]3C#N)cc2)c1
AC50 [1]: 7.73 µM (active)
AC50 [2]: 11.9 µM (active)
AC50 [3]: 36.2 µM (active)
AC50 [4]: 24.7 µM (active)
AC50 [5]: 23.2 µM (active)
AC50 [6]: 46.6 µM (active)
AC50 [7]: 17.4 µM (active)
AC50 [8]: 16.8 µM (active)
AC50 [9]: 2.15 µM (active)
AC50 [10]: 1.86 µM (active)
AC50 [11]: 8.27 µM (active)
AC50 [12]: 46.6 µM (active)
AC50 [13]: 0.833 µM (active)
AC50 [14]: 1.21 µM (active)
AC50 (Paired box protein Pax-8): 3.39 µM (active)

CCCn1ncc(CN(C)C[C@H]2Oc3c(NC(=O)c4ccncc4)cccc3C(=O)N(C(C)C)C[C@@H]2C)c1C
AC50 [15]: 0.521 µM (active)
IC50 [16]: 2.92 µM (inconclusive)
AC50 [17]: 0.521 µM (active)

CCOc1ccc(S(=O)(=O)NC(C)c2ccncc2)cc1 (stereo not drawn)
AC50 [18]: > 70 µM (inactive)

C[C@@H]1CN([C@@H](C)CO)C(=O)c2cc(NC(=O)C3CCCCC3)ccc2O[C@@H]1CN(C)Cc1ccc(-c2ccccc2)cc1
AC50 [19]: > 70 µM (inactive)
AC50 [20]: > 52 µM (inactive)

O=C1OC(=O)/C(=C\NCCc2ccccc2)C=C1Br
IC50 [21]: 3.7 µM (active)
IC50 [22]: 2.1 µM (active)
